{"source": "patent US20090304692A1", "about": "“TRIAZINE COMPOUNDS AS PI3 KINASE AND MTOR INHIBITORS” (Wyeth, priority 2008, published 2009)", "key": {"Human mTOR (FLAG-TOR)": {"biological_target": "Human mTOR (FLAG-TOR) (Homo sapiens, UniProt P42345)", "sequence (P42345 1360-2549 limits assumed)": "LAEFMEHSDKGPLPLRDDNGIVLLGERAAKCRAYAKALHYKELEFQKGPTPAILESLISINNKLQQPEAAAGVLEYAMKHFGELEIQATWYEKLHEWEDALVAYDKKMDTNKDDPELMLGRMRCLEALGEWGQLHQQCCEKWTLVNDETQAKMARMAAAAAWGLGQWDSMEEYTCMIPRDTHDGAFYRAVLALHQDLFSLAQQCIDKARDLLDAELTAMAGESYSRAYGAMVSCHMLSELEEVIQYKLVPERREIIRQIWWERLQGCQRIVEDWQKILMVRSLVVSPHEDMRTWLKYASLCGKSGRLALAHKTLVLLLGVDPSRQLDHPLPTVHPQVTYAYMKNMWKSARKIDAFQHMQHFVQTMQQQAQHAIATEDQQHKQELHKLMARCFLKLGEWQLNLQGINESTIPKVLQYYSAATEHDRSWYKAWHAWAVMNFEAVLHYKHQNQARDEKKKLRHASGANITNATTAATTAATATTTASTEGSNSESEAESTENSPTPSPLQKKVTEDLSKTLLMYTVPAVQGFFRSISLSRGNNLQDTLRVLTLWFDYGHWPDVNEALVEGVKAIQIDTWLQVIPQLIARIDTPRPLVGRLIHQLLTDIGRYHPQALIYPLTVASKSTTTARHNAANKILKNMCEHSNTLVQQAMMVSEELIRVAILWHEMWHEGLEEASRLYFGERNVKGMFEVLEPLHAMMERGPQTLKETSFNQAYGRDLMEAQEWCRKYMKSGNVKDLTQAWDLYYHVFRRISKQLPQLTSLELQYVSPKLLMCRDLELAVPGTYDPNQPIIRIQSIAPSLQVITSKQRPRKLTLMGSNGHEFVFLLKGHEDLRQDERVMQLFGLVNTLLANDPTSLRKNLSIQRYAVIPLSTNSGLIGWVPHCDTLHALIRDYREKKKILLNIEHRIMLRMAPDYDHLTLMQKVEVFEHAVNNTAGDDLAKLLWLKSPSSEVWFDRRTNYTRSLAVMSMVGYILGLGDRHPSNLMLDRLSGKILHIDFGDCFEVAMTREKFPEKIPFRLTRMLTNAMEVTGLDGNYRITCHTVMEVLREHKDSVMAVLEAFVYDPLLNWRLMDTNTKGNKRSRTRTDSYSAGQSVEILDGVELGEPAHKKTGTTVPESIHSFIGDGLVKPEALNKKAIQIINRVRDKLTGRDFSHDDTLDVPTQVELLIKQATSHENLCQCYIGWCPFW", "test": "mTOR kinase assay (DELFIA format, purified enzyme)", "type": "biochemical", "settings": "read-out: IC50 mTOR"}, "PI3K-α": {"biological_target": "PI3K-α (Homo sapiens, UniProt P42336)", "sequence (P42336 whole entry, species assumed)": "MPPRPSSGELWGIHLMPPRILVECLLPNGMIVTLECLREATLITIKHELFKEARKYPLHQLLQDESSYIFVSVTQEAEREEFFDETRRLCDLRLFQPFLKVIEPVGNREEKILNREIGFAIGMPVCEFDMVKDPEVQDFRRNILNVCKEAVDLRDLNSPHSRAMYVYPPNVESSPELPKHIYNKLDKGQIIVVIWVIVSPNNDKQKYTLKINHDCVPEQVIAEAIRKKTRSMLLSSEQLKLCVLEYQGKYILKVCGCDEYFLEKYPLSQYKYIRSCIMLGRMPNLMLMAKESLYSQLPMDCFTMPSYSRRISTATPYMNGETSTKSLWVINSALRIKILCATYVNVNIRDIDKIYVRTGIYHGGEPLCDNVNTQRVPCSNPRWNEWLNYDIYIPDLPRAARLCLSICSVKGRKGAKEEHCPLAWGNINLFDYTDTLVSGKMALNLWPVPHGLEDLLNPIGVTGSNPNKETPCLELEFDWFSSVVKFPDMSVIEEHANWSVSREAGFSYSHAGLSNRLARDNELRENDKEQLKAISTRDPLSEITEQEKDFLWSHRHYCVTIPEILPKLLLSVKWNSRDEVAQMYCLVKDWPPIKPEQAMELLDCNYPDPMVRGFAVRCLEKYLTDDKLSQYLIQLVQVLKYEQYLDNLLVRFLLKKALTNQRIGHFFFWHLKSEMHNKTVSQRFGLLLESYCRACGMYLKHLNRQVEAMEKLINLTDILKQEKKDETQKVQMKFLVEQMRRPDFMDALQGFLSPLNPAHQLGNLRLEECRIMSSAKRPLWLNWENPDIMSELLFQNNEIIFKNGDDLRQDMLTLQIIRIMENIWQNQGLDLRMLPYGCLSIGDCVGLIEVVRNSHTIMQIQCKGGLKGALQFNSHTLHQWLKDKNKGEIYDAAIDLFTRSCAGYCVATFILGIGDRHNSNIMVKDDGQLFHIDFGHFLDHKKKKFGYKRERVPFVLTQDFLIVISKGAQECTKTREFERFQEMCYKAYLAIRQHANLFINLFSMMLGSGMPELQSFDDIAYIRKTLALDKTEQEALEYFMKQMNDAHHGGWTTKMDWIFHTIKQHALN", "sequence (P27986 whole entry partner, species assumed)": "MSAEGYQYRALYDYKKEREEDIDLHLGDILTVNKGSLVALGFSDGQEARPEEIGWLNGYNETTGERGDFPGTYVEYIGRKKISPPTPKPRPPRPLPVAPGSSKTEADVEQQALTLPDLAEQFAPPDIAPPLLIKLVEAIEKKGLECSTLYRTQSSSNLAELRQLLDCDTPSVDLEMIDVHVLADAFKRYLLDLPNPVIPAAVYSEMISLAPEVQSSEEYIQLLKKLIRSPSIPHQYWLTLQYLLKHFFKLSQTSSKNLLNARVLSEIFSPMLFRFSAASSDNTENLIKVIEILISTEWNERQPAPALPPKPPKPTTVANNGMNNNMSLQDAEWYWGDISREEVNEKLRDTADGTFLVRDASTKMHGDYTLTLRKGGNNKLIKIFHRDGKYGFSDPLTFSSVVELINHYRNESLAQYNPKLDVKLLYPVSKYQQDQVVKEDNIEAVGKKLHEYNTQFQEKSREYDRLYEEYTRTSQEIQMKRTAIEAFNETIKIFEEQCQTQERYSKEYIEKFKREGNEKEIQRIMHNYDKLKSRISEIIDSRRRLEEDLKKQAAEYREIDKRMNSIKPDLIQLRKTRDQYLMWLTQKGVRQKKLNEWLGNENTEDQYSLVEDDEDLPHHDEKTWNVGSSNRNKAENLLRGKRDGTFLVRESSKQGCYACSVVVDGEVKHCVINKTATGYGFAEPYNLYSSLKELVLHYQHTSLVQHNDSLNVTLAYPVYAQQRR", "test": "PI3K-alpha fluorescence polarization assay", "settings": "read-out: IC50 PI3Kα"}, "PI3K-γ": {"biological_target": "PI3K-γ (Homo sapiens, UniProt P48736)", "sequence (P48736 whole entry, species assumed)": "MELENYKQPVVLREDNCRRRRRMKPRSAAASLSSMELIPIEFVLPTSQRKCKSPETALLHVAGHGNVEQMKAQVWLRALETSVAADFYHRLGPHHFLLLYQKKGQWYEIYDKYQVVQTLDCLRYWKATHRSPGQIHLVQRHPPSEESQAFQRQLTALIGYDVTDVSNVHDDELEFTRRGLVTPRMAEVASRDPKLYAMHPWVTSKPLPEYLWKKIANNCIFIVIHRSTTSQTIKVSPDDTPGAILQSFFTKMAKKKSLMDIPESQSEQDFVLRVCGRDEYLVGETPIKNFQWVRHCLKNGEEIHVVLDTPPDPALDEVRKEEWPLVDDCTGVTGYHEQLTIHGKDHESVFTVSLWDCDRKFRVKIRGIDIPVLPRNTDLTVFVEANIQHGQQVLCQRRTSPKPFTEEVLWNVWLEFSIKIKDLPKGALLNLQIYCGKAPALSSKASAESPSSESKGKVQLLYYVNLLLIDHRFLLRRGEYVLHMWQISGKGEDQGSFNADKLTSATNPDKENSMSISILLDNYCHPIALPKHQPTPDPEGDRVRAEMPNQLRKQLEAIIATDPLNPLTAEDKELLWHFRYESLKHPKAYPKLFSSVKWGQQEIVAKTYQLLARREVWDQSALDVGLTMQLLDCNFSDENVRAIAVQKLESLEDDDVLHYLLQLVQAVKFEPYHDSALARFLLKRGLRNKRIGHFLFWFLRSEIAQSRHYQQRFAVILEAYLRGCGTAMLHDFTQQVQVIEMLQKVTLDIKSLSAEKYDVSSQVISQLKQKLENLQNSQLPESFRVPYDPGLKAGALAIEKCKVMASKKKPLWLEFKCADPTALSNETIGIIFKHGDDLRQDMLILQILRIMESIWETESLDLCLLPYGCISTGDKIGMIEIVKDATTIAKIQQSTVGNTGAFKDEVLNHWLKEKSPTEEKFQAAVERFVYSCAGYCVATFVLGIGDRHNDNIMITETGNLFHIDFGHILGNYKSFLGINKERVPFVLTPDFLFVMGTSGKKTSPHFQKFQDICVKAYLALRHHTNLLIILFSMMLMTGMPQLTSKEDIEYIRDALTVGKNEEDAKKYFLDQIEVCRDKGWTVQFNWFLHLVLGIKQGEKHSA", "test": "PI3K-gamma fluorescence polarization assay", "settings": "read-out: IC50 PI3Kγ"}}, "note": "Several values for one entry are separate records, joined by “and”; a condition that tells them apart may be missing. Identical values can stand only once. Like-named read-outs stand apart in the source and are kept apart here.", "data": [{"smiles": "O=C(Nc1ccc(C(=O)O)cc1)Nc1ccc(-c2nc(N3CCCC3)nc(N3CCOCC3)n2)cc1", "note": "[Example 599, 4-({[4-(4-morpholin-4-yl-6-pyrrolidin-1-yl-1,3,5-triazin-2-yl)phenyl]carbamoyl}amino)benzoic acid]", "values": [{"measurement": "IC50", "setting": "Human mTOR (FLAG-TOR)", "value": 13, "unit": "nM"}, {"measurement": "IC50", "setting": "PI3K-α", "value": 64.5, "unit": "nM"}, {"measurement": "IC50", "setting": "PI3K-γ", "value": 190, "unit": "nM"}]}, {"smiles": "COC(=O)c1ccc(NC(=O)Nc2ccc(-c3nc(N4CCOCC4)nc(N4CCN(C(=O)N(C)C)CC4)n3)cc2)cc1", "note": "[Example 641, methyl 4-{[(4-{4-[4-(dimethylcarbamoyl)piperazin-1-yl]-6-morpholin-4-yl-1,3,5-triazin-2-yl}phenyl)carbamoyl]amino}benzoate]", "values": [{"measurement": "IC50", "setting": "Human mTOR (FLAG-TOR)", "value": 7, "unit": "nM"}, {"measurement": "IC50", "setting": "PI3K-α", "value": 88.5, "unit": "nM"}, {"measurement": "IC50", "setting": "PI3K-γ", "value": 276, "unit": "nM"}]}, {"smiles": "C[C@@H]1COCCN1c1nc(-c2ccc(NC(=O)Nc3cccnc3)cc2)nc(C2CCOCC2)n1", "note": "[Example 420, (R)-1-(4-(4-(3-methylmorpholino)-6-(tetrahydro-2H-pyran-4-yl)-1,3,5-triazin-2-yl)phenyl)-3-(pyridin-3-yl)urea]", "values": [{"measurement": "IC50", "setting": "Human mTOR (FLAG-TOR)", "value": 0.63, "unit": "nM"}, {"measurement": "IC50", "setting": "PI3K-α", "value": 593, "unit": "nM"}, {"measurement": "IC50", "setting": "PI3K-γ", "value": 4360, "unit": "nM"}]}, {"smiles": "O=C(Nc1ccncc1)Nc1ccc(-c2nc(N3CCOCC3)nc(N3C4COCC(O)C3C4)n2)cc1", "note": "(stereo not shown) [Example 480, 1-{4-[4-(5-hydroxy-3-oxa-7-azabicyclo[4.1.1]oct-7-yl)-6-morpholin-4-yl-1,3,5-triazin-2-yl]phenyl}-3-pyridin-4-ylurea]", "values": [{"measurement": "IC50", "setting": "Human mTOR (FLAG-TOR)", "value": 2.9, "unit": "nM"}, {"measurement": "IC50", "setting": "PI3K-α", "value": 13, "unit": "nM"}, {"measurement": "IC50", "setting": "PI3K-γ", "value": 53, "unit": "nM"}]}, {"smiles": "CN1CCN(C(=O)c2ccc(NC(=O)Nc3ccc(-c4nc(N5CCOCC5)nc(N5C6CCC5COC6)n4)cc3)cc2)CC1(C)C", "note": "[Example 837, 1-{4-[4-(morpholin-4-yl)-6-(3-oxa-8-azabicyclo[3.2.1]oct-8-yl)-1,3,5-triazin-2-yl]phenyl}-3-{4-[(3,3,4-trimethylpiperazin-1-yl)carbonyl]phenyl}urea]", "values": [{"measurement": "IC50", "setting": "Human mTOR (FLAG-TOR)", "value": 515, "unit": "nM"}, {"measurement": "IC50", "setting": "PI3K-α", "value": 3.7, "unit": "nM"}, {"measurement": "IC50", "setting": "PI3K-γ", "value": 19.5, "unit": "nM"}]}, {"smiles": "CCNC(=O)Nc1ccc(-c2nc(N3CCOCC3)nc(N3CCOCC3)n2)cc1", "note": "[Example 12, 1-[4-(4,6-dimorpholin-4-yl-1,3,5-triazin-2-yl)phenyl]-3-ethylurea]", "values": [{"measurement": "IC50", "setting": "Human mTOR (FLAG-TOR)", "value": 11, "unit": "nM"}, {"measurement": "IC50", "setting": "PI3K-α", "value": 248, "unit": "nM"}, {"measurement": "IC50", "setting": "PI3K-γ", "value": 815, "unit": "nM"}]}, {"smiles": "COC(=O)c1ccc(NC(=O)Nc2ccc(-c3nc(-c4ccc(C)cc4)nc(N4CCOCC4)n3)cc2)cc1", "note": "[Example 344, methyl 4-[({4-[4-(4-methylphenyl)-6-morpholin-4-yl-1,3,5-triazin-2-yl]phenyl}carbamoyl)amino]benzoate]", "values": [{"measurement": "IC50", "setting": "Human mTOR (FLAG-TOR)", "value": "1500 nM and 1600 nM"}, {"measurement": "IC50", "setting": "PI3K-α", "value": 1610, "unit": "nM"}, {"measurement": "IC50", "setting": "PI3K-α; listed as 528", "value": 1610, "unit": "nM"}, {"measurement": "IC50", "setting": "PI3K-γ", "value": 4140, "unit": "nM"}]}, {"smiles": "C[C@H]1COCCN1c1nc(-c2ccc(NC(=O)NC3CCN(C)CC3)cc2)nc(N2CCOCC2)n1", "note": "[Example 99, 1-(4-{4-[(3S)-3-methylmorpholin-4-yl]-6-morpholin-4-yl-1,3,5-triazin-2-yl}phenyl)-3-(1-methylpiperidin-4-yl)urea]", "values": [{"measurement": "IC50", "setting": "Human mTOR (FLAG-TOR)", "value": 460, "unit": "nM"}, {"measurement": "IC50", "setting": "PI3K-α", "value": 1520, "unit": "nM"}, {"measurement": "IC50", "setting": "PI3K-γ", "value": 7500, "unit": "nM"}]}, {"smiles": "COC(=O)c1cccc(NC(=O)Nc2ccc(-c3nc(-c4ccc(C)cc4)nc(N4CCOCC4)n3)cc2)c1", "note": "[Example 578, methyl 3-[({4-[4-(4-methylphenyl)-6-morpholin-4-yl-1,3,5-triazin-2-yl]phenyl}carbamoyl)amino]benzoate]", "values": [{"measurement": "IC50", "setting": "Human mTOR (FLAG-TOR)", "value": 2100, "unit": "nM"}, {"measurement": "IC50", "setting": "PI3K-α", "value": 2410, "unit": "nM"}, {"measurement": "IC50", "setting": "PI3K-γ", "value": 2510, "unit": "nM"}]}, {"smiles": "CCS(=O)(=O)N1CCN(c2nc(-c3ccc(NC(=O)Nc4ccc(C(=O)O)cc4)cc3)nc(N3CCOCC3)n2)CC1", "note": "[Example 652, 4-{[(4-{4-[4-(ethylsulfonyl)piperazin-1-yl]-6-morpholin-4-yl-1,3,5-triazin-2-yl}phenyl)carbamoyl]amino}benzoic acid]", "values": [{"measurement": "IC50", "setting": "Human mTOR (FLAG-TOR)", "value": 4, "unit": "nM"}, {"measurement": "IC50", "setting": "PI3K-α", "value": 36, "unit": "nM"}, {"measurement": "IC50", "setting": "PI3K-γ", "value": 84.5, "unit": "nM"}]}, {"smiles": "C[C@H]1COCCN1c1nc(-c2ccc(NC(=O)Nc3ccc(C(=O)N4CC[C@@H](N(C)C)C4)cc3)cc2)nc(N2C3CCC2COC3)n1", "note": "[Example 833, 1-(4-{[(3R)-3-(dimethylamino)pyrrolidin-1-yl]carbonyl}phenyl)-3-(4-{4-[(3S)-3-methylmorpholin-4-yl]-6-(3-oxa-8-azabicyclo[3.2.1]oct-8-yl)-1,3,5-triazin-2-yl}phenyl)urea]", "values": [{"measurement": "IC50", "setting": "Human mTOR (FLAG-TOR)", "value": 185, "unit": "nM"}, {"measurement": "IC50", "setting": "PI3K-α", "value": 5.6, "unit": "nM"}, {"measurement": "IC50", "setting": "PI3K-γ", "value": 81.5, "unit": "nM"}]}, {"smiles": "CCc1nc(-c2ccc(NC(=O)Nc3ccc(C(=O)OC)cc3)cc2)nc(N2CCOCC2)n1", "note": "[Example 225, methyl 4-({[4-(4-ethyl-6-morpholin-4-yl-1,3,5-triazin-2-yl)phenyl]carbamoyl}amino)benzoate]", "values": [{"measurement": "IC50", "setting": "Human mTOR (FLAG-TOR)", "value": 47, "unit": "nM"}, {"measurement": "IC50", "setting": "PI3K-α", "value": 109, "unit": "nM"}, {"measurement": "IC50", "setting": "PI3K-γ", "value": 388, "unit": "nM"}]}, {"smiles": "O=C(Nc1ccc(-c2nc(N3CCOCC3)nc(N3CC4CCC3CO4)n2)cc1)Nc1cc[nH]n1", "note": "(stereo not shown) [Example 809, 1-{4-[4-morpholin-4-yl-6-(2-oxa-5-azabicyclo[2.2.2]oct-5-yl)-1,3,5-triazin-2-yl]phenyl}-3-(1H-pyrazol-3-yl)urea]", "values": [{"measurement": "IC50", "setting": "Human mTOR (FLAG-TOR)", "value": 67, "unit": "nM"}, {"measurement": "IC50", "setting": "PI3K-α", "value": 395, "unit": "nM"}, {"measurement": "IC50", "setting": "PI3K-γ", "value": 2190, "unit": "nM"}]}]}
